Measurements as given in PMC9496321, “6-Furopyridine Hexamethylene Amiloride Is a Non-Selective P2X7 Receptor Antagonist” (Biomolecules, 2022).
Values belong to the compound of their own block, whether it stands above or below them.

Experiments:
endogenous hP2X7 = molecular target: T1, endogenous hP2X7 (Homo sapiens, UniProt Q99572); assay: ATP-induced ethidium+ uptake in RPMI8226 multiple myeloma cells (flow cytometry); assay type: cell-based; conditions: any concentration up to 30 μM, 300 μM ATP, RPMI8226 cells
T1 construct: endogenous in cells; host or cells: RPMI8226 cells
T1 sequence (Q99572 1-595): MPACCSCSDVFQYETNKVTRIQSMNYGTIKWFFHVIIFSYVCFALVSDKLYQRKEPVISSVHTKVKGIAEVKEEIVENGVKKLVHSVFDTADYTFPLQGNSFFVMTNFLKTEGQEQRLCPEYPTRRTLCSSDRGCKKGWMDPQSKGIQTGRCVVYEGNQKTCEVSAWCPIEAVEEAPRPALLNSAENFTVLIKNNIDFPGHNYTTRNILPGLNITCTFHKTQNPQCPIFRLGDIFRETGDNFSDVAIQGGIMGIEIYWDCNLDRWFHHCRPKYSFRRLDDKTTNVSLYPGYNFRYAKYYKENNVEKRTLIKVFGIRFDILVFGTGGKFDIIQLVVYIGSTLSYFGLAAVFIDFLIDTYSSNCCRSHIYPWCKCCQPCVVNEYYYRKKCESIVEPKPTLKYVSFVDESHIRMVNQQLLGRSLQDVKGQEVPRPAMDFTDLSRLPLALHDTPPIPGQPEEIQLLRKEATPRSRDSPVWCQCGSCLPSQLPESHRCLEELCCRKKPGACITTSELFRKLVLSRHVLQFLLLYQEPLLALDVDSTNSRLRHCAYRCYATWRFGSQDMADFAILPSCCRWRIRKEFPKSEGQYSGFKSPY

hP2X7 [1] = molecular target: T2, hP2X7 (Homo sapiens, UniProt Q99572); assay: ATP-induced ethidium+ uptake in stably transfected HEK-hP2X7 cells (flow cytometry); assay type: cell-based; conditions: any concentration up to 30 μM, 450 μM ATP, HEK-hP2X7 cells
T2 construct: expressed in transfected cells; host or cells: HEK293 cells, stably transfected (HEK-hP2X7)
T2 sequence (Q99572 1-595): T1 sequence (Q99572 1-595)

P2X7 [2] = molecular target: T3, P2X7 (Homo sapiens, UniProt Q99572); conditions: human leukaemic lymphocytes, cited from earlier work; for inhibition of ATP-induced Na+ fluxes: 40 μM compound
T3 sequence (Q99572 1-595): T1 sequence (Q99572 1-595)

P2X7 [3] = molecular target: T3, P2X7; assay: Plate-based flow cytometric YO-PRO-1 dye uptake compound screen in RPMI8226 cells; assay type: cell-based; design: endogenous in cells; host or cells: RPMI8226 cells; conditions: 5 μM compound, 250 μM ATP; also previous studies
Experimental: RPMI8226 cells were washed thrice with low-divalent medium (LDM) (145 mM NaCl, 2 mM KCl, 0.2 mM CaCl2, 13 mM D-glucose and 10 mM HEPES, pH 7.5) and 1 × 10^5 cells were added to each well of a 96-well flat-bottomed plate. Amiloride derivatives, at 10 μM (final concentration 5 μM) or vehicle (DMSO) were added, and plates pre-incubated (37 °C, 15 min). […] Wells were washed twice with LDM (300× g, 5 min) and cells were resuspended in LDM. Data was acquired with an Attune NxT Flow Cytometer an Autosampler (Thermo Fisher Scientific). Mean fluorescent intensity (MFI) of YO-PRO-1^+ uptake was determined using FlowJo.

[4] = tested on: hP2X7-mediated IL-1β release; assay: Whole blood IL-1β release assay; assay type: cell-based; conditions: 30 μM compound, 6 mM ATP, LPS-primed human whole blood
Experimental: Whole blood IL-1β release assays were conducted as described. Briefly, whole human blood was mixed with an equal volume of serum-free RPMI-1640 medium containing LPS (200 ng/mL), added to a flat-bottom 96-well plate and incubated (37 °C, 95% air/5% CO2, 105 min). Compounds (30 μM) or vehicle (DMSO) were added to respective wells and incubated (37 °C, 95% air/5% CO2, 15 min). […] Plates were centrifuged (700× g, 10 min) with the resulting supernatants collected and stored at −80 °C. hIL-1β concentrations were determined using a Human IL-1β ELISA (Thermo Fisher Scientific) according to the manufacturer’s instructions. Samples above the detection limit (7500 pg/mL) were set at 7500 pg/mL for statistical analysis.

P2X7 [5] = molecular target: T3, P2X7; assay: ATP-induced YO-PRO-1 uptake into human T cells (PBMCs); assay type: cell-based; design: Human peripheral blood mononuclear cells (PBMCs) were pre-incubated with DMSO (vehicle) or 30 μM 6-FPHMA; endogenous in cells; host or cells: cryopreserved human PBMCs (CD3+, CD4+, CD8+ T cells), four donors; conditions: 30 μM compound, 1 mM ATP
Experimental: ATP-mediated uptake assays were conducted as described with either ethidium bromide or YO-PRO-1 iodide. Briefly, RPMI8226, HEK-hP2X7, HEK-mP2X7, HEK-cP2X7 or cryopreserved human peripheral blood mononuclear cells (PBMCs) were washed thrice with LDM (300× g, 5 min), resuspended in LDM and 1 × 10^6 cells were added to individual tubes. Cells were pre-incubated in the absence of compound (37 °C, 5 min) or in the presence of compound or vehicle (DMSO) (37 °C, 15 min) as indicated. […] An equal volume of ice-cold Mg^2+ stop solution was added and cells centrifuged (300× g, 5 min). Cells were washed twice in LDM (300× g, 5 min), resuspended and data were collected with an LSR Fortessa X-20 flow cytometer. MFI of ethidium^+ or YO-PRO-1^2+ was determined using FlowJo.

human (h) P2X7 = tested on: human (h) P2X7; design: method as in PMID 9720806; conditions: 10 μM compound, HEK-hP2X7 cells; cited from earlier work
mouse (m) P2X7 = tested on: mouse (m) P2X7; design: method as in PMID 7514597; conditions: 40 μM compound, Xenopus oocytes with mP2X7 mRNA; cited from earlier work
mP2X7 = tested on: mP2X7; design: method as in PMID 11181928; conditions: cited from earlier work
hP2X7 [6] = molecular target: T2, hP2X7; design: method as in PMID 11181928; conditions: 16 μM BzATP; cited from earlier work
P2X7 [7] = molecular target: T3, P2X7; design: endogenous in cells; conditions: human leukemic B cells, cited from earlier work

inhibition of hP2X7-mediated dye uptake (endogenous hP2X7): did not inhibit | inhibition of hP2X7-mediated dye uptake (hP2X7 [1]): did not inhibit
Compound: N=C(N)NC(=O)c1nc(-c2cc3cnccc3o2)c(N)nc1N [6-FPA, 6-furopyridine-substituted amiloride]

block of hP2X7 in screening assay (P2X7 [3]): blocks hP2X7 relatively poorly
Compound: N=C(N)NC(=O)c1nc(Cl)c(N)nc1N [Amiloride]
inhibition of ATP-mediated Na+ fluxes (P2X7 [2]; 1 mM compound): 50%

reduction of ATP-induced YO-PRO-1 uptake into CD3+ T cells (P2X7 [5]): 90 ± 8% | reduction of ATP-induced YO-PRO-1 uptake into CD4+ T cells (P2X7 [5]): 83 ± 17% | reduction of ATP-induced YO-PRO-1 uptake into CD8+ T cells (P2X7 [5]): 72 ± 22%
Compound: CCOc1ccc(Nc2ccc(/C(=C3C=C/C(=[N+](/CC)Cc4cccc(S(=O)(=O)[O-])c4)C=C/3C)c3ccc(N(CC)Cc4cccc(S(=O)(=O)O)c4)cc3C)cc2)cc1 [BBG, Brilliant Blue G]
reduction of ATP-induced IL-1β compared to vehicle control [4]: did not alter

Compound: CCN(c1nc(N)c(C(=O)N=C(N)N)nc1Cl)C(C)C [EIPA, 5-(N-ethyl-N-isopropyl) amiloride]
inhibition of ATP-induced Na+ fluxes (P2X7 [2]): 72%

Compound: NC(N)=NC(=O)c1nc(Cl)c(N2CCCCCC2)nc1N [HMA, 5-(N,N-hexamethylene) amiloride]
inhibition of ATP-induced Na+ fluxes (P2X7 [2]): 95% | inhibition of BzATP-induced inward currents (human (h) P2X7): 30% | inhibition of ATP- and BzATP-induced currents (mouse (m) P2X7): partially inhibited | effect on mP2X7-mediated dye uptake at low BzATP (mP2X7; 16 μM BzATP): potentiated | potency of inhibition of BzATP-induced uptake, mP2X7 compared to hP2X7 (mP2X7; HEK293 cells): reduced potency | potentiation of dye uptake at low BzATP, hP2X7 (hP2X7 [6]): not observed | inhibition of ATP-induced ethidium+ uptake (P2X7 [7]; 20 μM compound): 50% | concentration required for complete inhibition of ATP-induced ethidium+ uptake (P2X7 [7]): > 100 µM

Compound: O=C(NCC1(N2CCN(c3ccccc3)CC2)CCOCC1)c1cccnc1Sc1ccccc1 [JNJ-47965567]
reduction of ATP-induced IL-1β compared to vehicle control [4]: 98 ± 1% | reduction of ATP-induced YO-PRO-1 uptake into CD3+ T cells (P2X7 [5]): 79 ± 14% | reduction of ATP-induced YO-PRO-1 uptake into CD4+ T cells (P2X7 [5]): 78 ± 15% | reduction of ATP-induced YO-PRO-1 uptake into CD8+ T cells (P2X7 [5]): 80 ± 11%

Compound: Cc1nc(N=Nc2ccc(S(=O)(=O)O)cc2S(=O)(=O)O)c(COP(=O)(O)O)c(C=O)c1O [PPADS, Pyridoxalphosphate-6-azophenyl-2′,4′-disulfonic acid]
reduction of ATP-induced IL-1β compared to vehicle control [4]: did not alter | reduction of ATP-induced YO-PRO-1 uptake into CD3+ T cells (P2X7 [5]): 85 ± 9% | reduction of ATP-induced YO-PRO-1 uptake into CD4+ T cells (P2X7 [5]): 85 ± 11% | reduction of ATP-induced YO-PRO-1 uptake into CD8+ T cells (P2X7 [5]): 86 ± 7%
